This data set in a line: Sympatec laser diffraction particle size of micronized medicament. The settings on record: Sympatec laser diffraction instrument; micronized starting material of Example 10. In kind it is physicochemical. As to the method:
A stock solution of 16.0 g of ethanol USP and 0.0053 g of oleic acid was prepared. Into each of three 14-mL fluoropolymer (FEP-PES) coated aluminum canisters was added 7 mg of micronized salmeterol xinafoate, having a volume mean diameter (X50) of 1.6 μm as measured using a Sympatec laser diffraction instrument. To each canister was then added 10.0 g of HFA-134a, at about −70° C., and approximately 0.20 g of the stock solution. A 50-μL metering valve was crimp sealed to each canister. Each canister was sonicated for 1.5 minutes to promote mixing of the formulation and deaggregation of the medicament particles.

Structures are written as SMILES.

With `OCc1cc(C(O)CNCCCCCCOCCCCc2ccccc2)ccc1O` (stereo not shown) [micronized salmeterol xinafoate, salmeterol xinafoate], the “volume mean diameter (X50)” value is reported as 1.6 μm.

Values taken from patent publication US9808423B2, “Preparation of suspension aerosol formulations” (Generics [UK] Limited, priority 2004, dated 2017).
